# Columns and labels:
# Format in all cases: cell-based, human
# [1] = tested on: HT-29 orthotopic xenograft colorectal tumors; test: EVOC of orthotopic colon tumors, pERK and H&E/BrDu; conditions: lapatinib 4 μM combined with BRAFi (vemurafenib 4 μM)
# Description: 500-700 μmm^3 tumors were resected, sliced, and cultured ex-vivo. Following 4 days of drug treatment, slices were fixed and embedded in paraffin blocks. FFPE slices were stained by H&E, and the percentage of viable cancer cells was morphologically assessed on H&E stained sections by a pathologist as the ratio between viable cancer cell area and total cancer area (viable cancer cells plus necrotic cancer cells). […] Each black dot in a given treatment condition represents a different tumor. P-values were calculated by two-sided t-test. *** P<0.001 ** P<0.01. Error bars represent standard error. […] Names of the six secreted factors with the highest rScore are shown. Factors related to TNF pathways are marked in gray. Results represent the average of at least two experiments. […] Cohort size pre-treatment: 5-6, P-values of the difference on the last day of experiment were calculated by one-sided Mann-Whitney test. * P<0.05. […] Viability percentage was calculated based on the entire field of view per treatment combination. […] FFPE slices were stained by pERK and pERK activity was assessed by a pathologist. […]
# For the ex-vivo experiments EVOCs from immunocompromised mice bearing human tumors were generated, as further described hereinbelow. For the in-vivo validation experiments, mice bearing subcutaneous tumors were used; and response was measured by evaluating tumor volume. […]
# H1975 xenografts = test: EVOC viability; conditions: afatinib 3-4 μM
# Protocol: Vehicle—DMSO, FGFRi—AZD4547 2-4 μM, INSRi—linsitinib 2 μM, METi—crizotinib 2-4 μM, EGFRi—afatinib 3-4 μM. Each black dot in a given treatment condition represents a different tumor. P-values were calculated by two-sided t-test. ** P<0.01, * P<0.05. Error bars represent standard error. […] Viability percentage is given per treatment combination. Scale bar represents 50 μm. […] Error bars represent standard error. […] EGFRi—gefitinib 1.6 μM, FGFRi—AZD4547 0.2 μM. The percentage of viable cancer cells was morphologically assessed on H&E stained sections by a pathologist as the ratio between viable cancer cell area and total cancer area (viable cancer cells plus necrotic cancer cells). […] Viability score was calculated based on the entire field of view. […]
# Immunohistochemistry of EVOC tissues: To assess response therapy, 4 μm FFPE tissue slices were stained with H&E, or with specific antibodies: anti-pERK (Cell Signaling, #4370) followed by HRP conjugated secondary antibody (anti-Rabbit HRP, ZUC032, ZytoChem) and DAB staining (DAB substrate kit, DAB057, ZytoChem). […] All slides were scanned using the Pannoramic SCAN II (3[sequence]) and analyzed by a pathologist. The percentage of viable cancer cells was morphologically assessed on H&E stained sections by a pathologist as the ratio between viable cancer cell area and total cancer area (viable cancer cells plus necrotic cancer cells).
# [2] = tested on: BRAF (V600E) melanoma cell lines; test: High-throughput secretome screen of GFP-labeled cells (rScore, bScore, ranks); conditions: G361 and SK-MEL-5; PLX4720 2 μM, PD184352 1 μM, EMAPII 50 ng/ml
# Protocol: Cell lines—All cell lines (Table 1 hereinbelow) were cultured in DMEM supplemented with 100 units/ml Penicillin and Streptomycin, 2 μmM Glutamine, 1 μmM Pyruvate and 10% FCS, and maintained in a humidified incubator at 37° C. and 5% CO2. Cells were routinely tested for Mycoplasma contamination by PCR. To generate stable cell lines constitutively expressing GFP, cells were infected with lentivirus bearing plasmid pLEX_TRC206 and sorted by FACS to enrich for GFP positive population. For the in-vitro experiments, human cancer cell lines which constitutively expressed GFP were treated with various cytotoxic and targeted drugs (see Table 1 hereinbelow); and the effect of different secreted factors (Table 2 hereinbelow) on the innate resistance to a drug based on the cells' GFP level was determined.
# High throughput in-vitro screens—For high-throughput screens or drug dose curves, cells were counted by Vi-Cell XR (Beckman coulter). Cells were seeded on 384 wells plates (Corning, 3712) using the EL406 washer dispenser (BioTek). Liquid handling of medium and drugs was effected by CyBi (WellFlex vario, CyBio). GFP fluorescence of cells was measured at 477/517 nm (excitation/emission) using Cytation3 (BioTek). Due to fluorescence reading bias at plate margins and corners, these margins were discarded for analysis.
# High-throughput secretome screens—To screen for the effect of secreted factors on the response of cell lines to different drugs, the following seven-days procedure was performed. On day 0, GFP expressing cells were seeded at 1500-2000 cells per well on 384-wells plates (Corning, 3712), depending on the cell line's proliferation rate. Each plate was seeded with one cell line. At day 1, each plate was treated with the secretome library (Table 2 hereinabove), one well per factor. Immediately afterwards, each plate was treated either with a drug (Table 1 hereinabove) at the EC90 concentration or with DMSO control. The CyBi liquid handler was used to treat each plate with a drug and the secretome library as well as to replace the medium, drug and secreted factors following 3 days of incubation (day 4). Cell fluorescence was read at days 1, 4 and 7 by Cytation3, and for some of the experiments at day 6 as well. Wells of interest were imaged at day 7 using the Operetta (PerkinElmer).
# (2) Based on observations, the plate area spanning rows 4-13 and columns 4-21 was hardly affected by plate margins biases. This area is referred to herein as plate core. To control for row specific and column specific biases, plate outliers (Zscore>4 or Zscore<−4) and edges were masked. Next, to capture row and column (col) biases for the i-th row and the j-th column, the bias factor was calculated:
# Upon QC completion, 199 experiment plates and 79 control (DMSO) plates were left for further analysis. • 4—Scoring methods-A GFP value for wells without secretome factors was obtained by averaging over the plate internal control wells. Those wells contained the solvents used in the secretome library. pScore: The effect of the secreted factors on proliferation under DMSO was evaluated using pScore (proliferation score). Values were given in percent units.
# rScore: The effect of the secreted factors on resistance to anti-cancer drugs was evaluated using rScore (rescue score). rScore was assigned to a given factor under two conditions: • 1. drug effect was >30% (residual drug growth<0.7) • 2. proliferation ratio between factor treated and untreated cells in the presence of drug was higher than one:
# rSscore=S−S*residual drug growth
# Based on manual inspection of the rScore distribution across the data, the threshold for a potential effect on drug resistance was set to 0.2 (FIGS. 8A-D).
# (*) Negative values were considered as zero. […] Groups with less than 4 experiments were discarded, finally resulting in 13 groups of experiments (FIG. 1E). […]
# pERK in G361 cell line = test: In-cell western blot of pERK; conditions: G361 cells treated with the BRAF inhibitor (vemurafenib 2 μM and trametinib 1 nM)
# Protocol: PLX4720—BRAFi, 2 μM; PD184352—MEKi, 1 μM, EMAPII—50 ng/ml. P-value of the difference between GFP(drug)/GFP(no-treatment) and GFP(drug+EMAPII)/GFP(no-treatment), at day 7, was calculated by two-sided t-test. ** p<0.01, *** p<0.001. Average rScore (+/−SE) was calculated from at least four different experiments. […] A total of 69 experiments are shown. […] The effect of FGF2 (10 ng/ml), EMAPII (10 ng/ml) or AIMP1 (10 ng/ml) on G361 μmelanoma cells treated with vemurafenib (2 μM) was measured with or without the FGFR inhibitor PD17307 (0.5 μM). Data represent an average of 4 to 8 experiments. P-value was calculated by two-sided t-test. *** p<0.001. Error bars represent standard error. […] P-values were calculated by two-sided t-test relative to luciferase. * p<0.05, Q-value=0.1. […] P-value was calculated by two-sided t-test. *** p<0.001.
# In-cell western blot—To validate that EMAPII mediates its effect on resistance to BRAF inhibition via the FGF receptors (FIG. 2G), the melanoma BRAF mutated cell line G361 was seeded in a 384-wells plate at a concentration of 16,000 cells per well. […] Finally, the plate was scanned with Odyssey (Li-cor) using microplate settings (169 μm, […]), and fluorescence intensity was quantified and normalized to the DRAQ level, and then to no drug control (DMSO).
molecule,measurement,setting,value
CS(=O)(=O)CCNCc1ccc(-c2ccc3ncnc(Nc4ccc(OCc5cccc(F)c5)c(Cl)c4)c3c2)o1 [lapatinib],downstream pERK signaling,[1],completely blocked pERK signaling
CN(C)C/C=C/C(=O)Nc1cc2c(Nc3ccc(F)c(Cl)c3)ncnc2cc1O[C@H]1CCOC1 [afatinib],"decrease of viability of cancer cells, on average",H1975 xenografts,28%
"EMAPII: endothelial-monocyte activating polypeptide II, C-terminus variant of AIMP1 (protein, UniProt Q12904 147-312, looked up, Endothelial monocyte-activating polypeptide 2) Endothelial …: SKPIDVSRLDLRIGCIITARKHPDADSLYVEEVDVGEIAPRTVVSGLVNHVPLEQMQNRMVILLCNLKPAKMRGVLSQAMVMCASSPEKIEILAPPNGSVPGDRITFDAFPGEPDKELNPKKKIWEQIQPDLHTNDECVATYKGVPFEVKGKGVCRAQTMSNSGIK",effect on sensitivity to BRAF/MEK inhibition,[2],conferred resistance to BRAF and MEK inhibition
same,pERK reactivation,pERK in G361 cell line,partially reactivate pERK
